The assay deals with Recombinant human HSP90a (Homo sapiens, UniProt P07900). Kind of assay: radioligand filter binding test ([3H]17AAG competition) for HSP90 inhibition. The settings on record: competition with [3H]17AAG 0.08 μM, HSP90 1.5 μg/assay, 22° C., 30 min. An excerpt: Test Method for the Measurement of HSP90 Inhibitors
The binding of geldanamycin or 17-allylamino-17-demethoxygeldanamycin (17AAG) to HSP90 and competitive inhibition thereof can be utilized in order to determine the inhibitory activity of the compounds according to the invention (Carreras et al. 2003, Chiosis et al. 2002).
In the specific case, a radioligand filter binding test is used. The radioligand used here is tritium-labelled 17-allylaminogeldanamycin, [3H]17AAG. This filter binding test allows a targeted search for inhibitors which interfere with the ATP binding site.
Recombinant human HSP90a (E. coli expressed, 95% purity);
[3H]17AAG (17-allylaminogeldanamycin, [allylamino-2,3-^3H. Specific activity: 1.11×10^12 Bq/mmol (Moravek, MT-1717);
HEPES filter buffer (50 mM HEPES, pH 7.0, 5 mM MgCl2, BSA 0.01%) Multiscreen FB (1 μm) filter plate (Millipore, MAFBNOB 50).
The 96-well microtitre filter plates are firstly irrigated and coated with 0.1% of polyethylenimine.
The test is carried out under the following conditions:
Reaction temperature 22° C.
Reaction time: 30 min., shaking at 800 rpm
50 mM HEPES HCl, pH 7.0, 5 mM MgCl2, 0.01% (w/v) of BSA
At the end of the reaction, the supernatant in the filter plate is removed by suction with the aid of a vacuum manifold (Multiscreen Separation System, Millipore), and the filter is washed twice.
The filter plates are then measured in a beta counter (Microbeta, Wallac) with scintillator (Microscint 20, Packard).
“% of control” is determined from the “counts per minutes” values, and the IC-50 value of a compound is calculated therefrom.
In the case of `Nc1nc(C(=O)N2Cc3ccccc3C2)c2cc(-c3ccncc3)ccc2n1` [Compound A923, 2-Amino-6-(pyridin-4-yl)-4-(1,3-dihydroisoindol-2-ylcarbonyl)quinazoline], the IC50 (as a rule, the point on the concentration scale where inhibition reaches its midpoint) was in the range of 1000 to 10000 nM.

With `Nc1nc(C(=O)Nc2ccccc2-c2ccccc2)c2ccccc2n1` [Compound A46], the IC50 is 1000 to 10000 nM. As for `Nc1nc(C(=O)N2Cc3ccccc3C2)c2cc(C#CCO)ccc2n1` [Compound A964, 2-amino-6-(3-hydroxyprop-1-ynyl)-4-(1,3-dihydroisoindol-2-ylcarbonyl)quinazoline], the IC50 was in the range of 10 to 1000 nM.

As for `Nc1nc(C(=O)N2Cc3ccccc3C2)c2cc(-c3ccccc3C=O)ccc2n1` [Compound A969, 2-[2-amino-4-(1,3-dihydroisoindole-2-carbonyl)quinazolin-6-yl]benzaldehyde], the IC50 lay within 10 to 1000 nM. With `CN(C)CCOc1ccccc1-c1ccc2nc(N)nc(C(=O)N3Cc4ccccc4C3)c2c1` [Compound A986, {2-amino-6-[2-(2-dimethylaminoethoxy)phenyl]quinazolin-4-yl}-(1,3-dihydroisoindol-2-yl)methanone], the IC50 was in the range of 10 to 1000 nM. `Nc1nc(C(=O)N2Cc3ccccc3C2)c2cc(C#CCCO)ccc2n1` [Compound A997]: the concentration for half-maximal inhibition (IC50) was 10 to 1000 nM. For `CCN(CC)C(=O)c1nc(N)nc2ccc(C)cc12` [Compound A77, 2-Amino-6-methyl-4-diethylcarbamoylquinazoline], the IC50 was in the range of 1000 to 10000 nM. Take `CC(C)c1ccc2nc(N)nc(C(=O)N3Cc4ccc(Br)cc4C3)c2c1` [Compound A117, 2-Amino-6-isopropyl-4-(5-bromo-1,3-dihydroisoindol-2-ylcarbonyl)quinazoline]: the IC50 fell in the range of 1000 to 10000 nM.

Consider `CCc1ccc2nc(N)nc(C(=O)N3Cc4ccccc4C3)c2c1` [Compound A97, 2-Amino-6-ethyl-4-(1,3-dihydroisoindol-2-ylcarbonyl)quinazoline], for which the IC50 lay within 10 to 1000 nM. The figure for `CN1CCN(Cc2cc(O)ccc2-c2ccc3nc(N)nc(C(=O)N4Cc5ccccc5C4)c3c2)CC1` [Compound A1002] is 10 to 1000 nM; for `COCCNCc1ccccc1-c1ccc2nc(N)nc(C(=O)N3Cc4ccccc4C3)c2c1` [Compound A976] it is 10 to 1000 nM; for `Nc1nc(C(=O)N2Cc3ccccc3C2)c2cc(-c3cccc(O)c3)ccc2n1` [Compound A925, 2-Amino-6-(3-hydroxyphenyl)-4-(1,3-dihydroisoindol-2-ylcarbonyl)quinazoline] it is 1000 to 10000 nM.

The values above are taken from patent US8501754B2, “Quinazolinamide derivatives” (MERCK PATENT GmbH, priority 2007, dated 2013).
